Results on five compounds are retold here after publication PMC6385203, “Mutations in the palm domain disrupt modulation of acid-sensing ion channel 1a currents by neuropeptides” (Scientific Reports, 2019).

“Also recorded” adds a separate entry of the source. Ends that are not written are not given here.

Test [1] concerns ASIC1a. To be noted: cited from earlier work. On the procedure: Currently it is not known where in the ASICs the RFa peptides bind. […] Our docking studies predicted possible b ... || ASIC1a function was measured by two-electrode voltage-clamp after recombinant expression in Xenopus oocytes. The channels were activated by a pH5 stimulation solution from a conditioning solution of pH7.4. […] We measured the rate of FRRFa unbinding, as the disappearance of the sustained current after a 50-s incubation with 50 μM FRRFa, as 0.025 ± 0.005 s^−1 (n = 8, Fig. 2b).

A further test deals with FaNaC. To be noted: molluscan FaNaC; cited from earlier work. An excerpt: (§1) FaNaC-like channels have been described in mollusks and Hydra[8]–[10], but not in mammals. Mammals express FMRFa-related peptides that exert their pharmacological actions mainly by binding to G protein-coupled receptors. Mammalian FMRFa-like peptides contain more than four residues. Since they ...

Test [2] relates to ASIC1- and ASIC3-containing channels. To be noted: FMRFa and related peptides; cited from earlier work.
Source text: as §1

Test [3] relates to ASIC1a. To be noted: cited from earlier work; for competition between functional effects: PcTx1 vs big dynorphin. An excerpt: (§2) Based on in silico docking, mutagenesis and functional validation, our study points to the side cavities of the central vestibule as the most probable binding sites for the peptide FRRFa. […] The 40-amino acid peptide toxin PcTx1 binds into the acidic pocket and to the subunit interface ...

Test [4] concerns ENaC/degenerin ion channel family. To be noted: cited from earlier work.
Source text: as §1

The subject of a further test is ASIC1a L280C. To be noted: L280C mutant; cited from earlier work.
Source text: as §2

The subject of another test is ASIC1a E97C. Briefly: Modification of Cys mutant by MTSET. To be noted: 1 mM MTSET 3 min, pH dependence of activation and SSD, n=4-6. The class given is cell-based, human. On the procedure:
(§3) Figure S2. Modification of Cys mutants by MTSET. To determine whether exposure to MTSET modified specific Cys mutants, we applied pH protocols that detect shifts in the pH dependence of activation and of steady-state desen sitization (SSD) to ASIC1a-e xpressing oocytes, before and after a 3-min exposure to 1mM MTSET. a, illustration of the experimental protocol at the example of the E97C mutant. The acidic solution was applied once every minute, except during the incubation with MTSET. b, ratio of current amplitudes obtained at pH6.5 and pH5 from the conditioning pH7.4, as a measure of the pH dependence of activation, before (open bars) and after MTSET expo sure (red bars). c, ratio of the current amplitude at pH5 from the conditioning pH7.15 / the current amplitude at pH5 obtained from the conditioning pH7.4, as an indication of the pH dependence of SSD, n=4-6. *, p<0.05; **, p<0.01; ***, p<0.001; ****, p<0.0001; different between control and MTSET condition, […]
(§4) WT ASIC1a3,4. If a functional property is changed after MTSET incubation and its washout, it is concluded that the engineered Cys residue has been modified by MTSET. This analysis […]
(§5) (1 picture or pasted object on this page, not shown here)

The test system of a further test is ASIC1a E242C. Briefly: Modification of Cys mutant by MTSET. In kind it is cell-based, human. To be noted: 1 mM MTSET 3 min, pH dependence of activation and SSD, n=4-6. On the procedure: as §3, §4, §5
The next test relates to ASIC1a F302C. Kind of test: Modification of Cys mutant by MTSET. The class given is cell-based, human. To be noted: 1 mM MTSET 3 min, pH dependence of activation and SSD, n=4-6. On the procedure: as §3, §4, §5
Another test has as its system ASIC1a S240C. Briefly: Modification of Cys mutant by MTSET. In kind it is cell-based, human. To be noted: 1 mM MTSET 3 min, pH dependence of activation and SSD, n=4-6. On the procedure: as §3, §4, §5

Take Phe-Met-Arg-Phe-amide [FMRFa]: the requirement of pre-application result in the test on ASIC1a [1] is “affect ASIC1a currents only when pre-applied with the conditioning solution at pH 7.4”. Moreover, the channel activation result in the test with FaNaC was “activated by the neuropeptide Phe-Met-Arg-Phe-amide (FMRFa)”. Besides, in test [2], the “effects on ASIC desensitization, sustained current and SSD” value was “slow the desensitization time course of ASIC1- and ASIC3-containing channels and induce a sustained (non-desensitizing) current as well as an acidic shift in the SSD pH dependence of ASIC1a”.
For “PcTx1: 40-amino acid peptide toxin PcTx1 (EDCIPKWKGCVNRHGDCCEGLECWKRRRSFEVCVPKTPKT; ends and bridges not checked; cysteine pairing not given here; UniProt P60514 1-40, looked up)”, in the test on ASIC1a [3], the “competition between functional effects” value is “a competition between the functional effects of PcTx1 and the peptide big dynorphin”.
As to `N=C(N)NC(=O)c1nc(Cl)c(N)nc1N` [amiloride], the “inhibition of ENaC/degenerin channels” value in test [4] was “inhibited by amiloride”.
For the compound `C[N+](C)(C)CCSS(C)(=O)=O` [MTSET, [2-(trimethylamonium)ethyl] methanethiosulfonate], in the test with ASIC1a L280C, the “effect of MTSET modification on sustained current fraction” value is given as “strongly increases the sustained current fraction”. Besides, the “modification by MTSET” value was “evidence for modification by MTSET; also recorded: exposure to MTSET changes the properties of the mutants E97C, S240C and E242C” in the test on ASIC1a E97C; “evidence for modification by MTSET; also recorded: exposure to MTSET changes the properties of the mutants E97C, S240C and E242C” in the test with ASIC1a E242C; “evidence for modification by MTSET” with ASIC1a F302C; “evidence for modification by MTSET; also recorded: exposure to MTSET changes the properties of the mutants E97C, S240C and E242C” in the test with ASIC1a S240C.
Consider “big dynorphin: a remotely related Arg-rich 32-amino acid peptide”, for which, in the test on ASIC1a [3], the “competition between functional effects” value is “a competition between the functional effects of PcTx1 and the peptide big dynorphin”; the “modulation of ASIC1a” value is recorded as “modulates ASIC1a in a similar way as RFa peptides do”.
